Laboratory results as given in patent publication US11034675B2, “Solid forms of Selinexor and process for their preparation” (DR. REDDY'S LABORATORIES LIMITED, priority 2016, dated 2021).

Columns and labels:
[1] = stability of amorphous form under hygroscopic conditions (higher relative humidity); assay type: physicochemical; conditions: higher relative humidity conditions of more than 60% RH
From the text: (§1) The present application provides a stable amorphous form of Selinexor suitable for powder handling and downstream processes. […] In an embodiment, the present application provides a stable amorphous form of Selinexor with less than 5% of crystallinity, preferably with less than 1% crystallinity and more preferably devoid of crystallinity as per X-ray diffraction analysis.

[2] = stability of amorphous form under mechanical stress (grinding, milling); assay type: physicochemical; conditions: mechanical stress such as grinding and milling
From the text: as §1

## O=C(/C=C\n1cnc(-c2cc(C(F)(F)F)cc(C(F)(F)F)c2)n1)NNc1cnccn1 [Amorphous form of Selinexor, (Z)-3-(3-(3,5-bis(trifluoromethyl)phenyl)-IH—I,2,4-triazol-1-yl)-N′-(pyrazin-2yl) acrylohydrazide]
[1]
  stability under hygroscopic conditions: stable
[2]
  stability under mechanical stress: highly stable
